Reference: BindingDB's records for PubMed 1706716 (Duke University, 1991)

Assays:
[1] = biological target: T1, Alpha-1A adrenergic receptor (Rattus norvegicus, UniProt P43140)
T1 sequence (P43140 whole entry): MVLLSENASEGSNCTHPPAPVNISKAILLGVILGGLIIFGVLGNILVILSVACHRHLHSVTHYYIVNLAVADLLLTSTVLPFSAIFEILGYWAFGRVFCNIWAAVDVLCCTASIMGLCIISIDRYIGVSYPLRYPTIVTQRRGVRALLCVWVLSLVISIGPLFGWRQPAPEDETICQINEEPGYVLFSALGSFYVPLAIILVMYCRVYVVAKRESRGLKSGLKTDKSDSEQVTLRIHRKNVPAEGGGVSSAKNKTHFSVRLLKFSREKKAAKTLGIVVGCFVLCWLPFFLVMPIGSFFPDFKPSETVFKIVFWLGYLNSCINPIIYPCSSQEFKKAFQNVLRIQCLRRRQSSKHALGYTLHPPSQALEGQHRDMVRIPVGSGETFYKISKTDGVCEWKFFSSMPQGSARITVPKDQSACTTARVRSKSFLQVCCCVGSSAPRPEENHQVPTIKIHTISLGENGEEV

[2] = biological target: T2, Alpha-1A adrenergic receptor (Bos taurus, UniProt P18130)
T2 sequence (P18130 whole entry): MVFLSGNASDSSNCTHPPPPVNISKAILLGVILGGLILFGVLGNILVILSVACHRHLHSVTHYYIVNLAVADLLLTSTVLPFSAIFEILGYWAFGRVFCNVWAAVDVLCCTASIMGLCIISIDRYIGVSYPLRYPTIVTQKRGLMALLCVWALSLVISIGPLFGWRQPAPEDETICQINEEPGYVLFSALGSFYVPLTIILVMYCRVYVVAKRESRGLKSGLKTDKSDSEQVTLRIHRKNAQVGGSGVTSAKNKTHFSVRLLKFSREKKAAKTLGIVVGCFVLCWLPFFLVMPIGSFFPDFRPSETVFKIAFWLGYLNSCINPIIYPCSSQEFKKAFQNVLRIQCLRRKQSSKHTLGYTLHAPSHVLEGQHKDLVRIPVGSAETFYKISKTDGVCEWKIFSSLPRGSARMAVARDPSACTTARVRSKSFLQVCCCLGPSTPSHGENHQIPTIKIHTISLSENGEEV

[3] = biological target: T3, Alpha-1B adrenergic receptor (Rattus norvegicus, UniProt P15823)
T3 sequence (P15823 whole entry): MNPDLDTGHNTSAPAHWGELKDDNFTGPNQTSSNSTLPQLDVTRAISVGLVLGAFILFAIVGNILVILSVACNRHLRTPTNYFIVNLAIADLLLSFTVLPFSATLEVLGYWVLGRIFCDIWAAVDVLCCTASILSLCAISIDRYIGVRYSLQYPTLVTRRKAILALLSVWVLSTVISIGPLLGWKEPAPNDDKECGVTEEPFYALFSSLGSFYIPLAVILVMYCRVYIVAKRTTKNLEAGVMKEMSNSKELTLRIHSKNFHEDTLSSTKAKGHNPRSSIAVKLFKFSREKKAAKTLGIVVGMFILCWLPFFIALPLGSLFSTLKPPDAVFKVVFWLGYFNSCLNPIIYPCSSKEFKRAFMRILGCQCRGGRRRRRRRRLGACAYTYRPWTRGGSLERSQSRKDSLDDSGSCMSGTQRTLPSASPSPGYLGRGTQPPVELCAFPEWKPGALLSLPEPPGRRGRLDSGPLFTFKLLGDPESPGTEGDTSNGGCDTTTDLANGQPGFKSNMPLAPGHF

## COc1ccc(OC)c(C(O)C(C)N)c1 (stereo not drawn)
[1]
  Ki: > 10000 nM
[2]
  Ki: > 10000 nM
[3]
  Ki: 1610 nM

## O=C(NC1CCN(CCc2c[nH]c3ccccc23)CC1)c1ccccc1 [N-{1-[2-(1H-Indol-3-yl)-ethyl]-piperidin-4-yl}-benzamide(indoramin)]
[1]
  Ki: 611 nM
[3]
  Ki: 226 nM

## COc1cccc(OC)c1OCCNCC1Oc2ccccc2OC1c1ccccc1 (stereo not drawn) [NSC_185453]
[1]
  Ki: 2.1 nM
[2]
  Ki: 0.68 nM
[3]
  Ki: 28.6 nM

## NCC(O)c1ccc(O)c(O)c1 (stereo not drawn) [Noradrenaline,(+)]
[2]
  Ki: 9730 nM

## CNC[C@H](O)c1cccc(O)c1 [PHENYLEPHRINE]
[2]
  Ki: > 10000 nM

## Cc1ccc(N(CC2=NCCN2)c2cccc(O)c2)cc1 [SMR000059054]
[2]
  Ki: 15.3 nM

## Cc1cc(C(C)(C)C)c(O)c(C)c1CC1=NCCN1 [SMR000059324]
[2]
  Ki: 114 nM

## COC(=O)[C@@H]1[C@H]2C[C@H]3c4[nH]c5ccccc5c4CCN3C[C@@H]2CC[C@@H]1O [yohimbic acid methyl ester]
[3]
  Ki: 517 nM
